Assay [1] addresses Mitogen-activated protein kinase 9 (Homo sapiens, UniProt P45984).
In assay [2] the target is T1, Serine/threonine-protein kinase D2 (Homo sapiens, UniProt Q9BZL6).
T1 sequence (Q9BZL6 whole entry): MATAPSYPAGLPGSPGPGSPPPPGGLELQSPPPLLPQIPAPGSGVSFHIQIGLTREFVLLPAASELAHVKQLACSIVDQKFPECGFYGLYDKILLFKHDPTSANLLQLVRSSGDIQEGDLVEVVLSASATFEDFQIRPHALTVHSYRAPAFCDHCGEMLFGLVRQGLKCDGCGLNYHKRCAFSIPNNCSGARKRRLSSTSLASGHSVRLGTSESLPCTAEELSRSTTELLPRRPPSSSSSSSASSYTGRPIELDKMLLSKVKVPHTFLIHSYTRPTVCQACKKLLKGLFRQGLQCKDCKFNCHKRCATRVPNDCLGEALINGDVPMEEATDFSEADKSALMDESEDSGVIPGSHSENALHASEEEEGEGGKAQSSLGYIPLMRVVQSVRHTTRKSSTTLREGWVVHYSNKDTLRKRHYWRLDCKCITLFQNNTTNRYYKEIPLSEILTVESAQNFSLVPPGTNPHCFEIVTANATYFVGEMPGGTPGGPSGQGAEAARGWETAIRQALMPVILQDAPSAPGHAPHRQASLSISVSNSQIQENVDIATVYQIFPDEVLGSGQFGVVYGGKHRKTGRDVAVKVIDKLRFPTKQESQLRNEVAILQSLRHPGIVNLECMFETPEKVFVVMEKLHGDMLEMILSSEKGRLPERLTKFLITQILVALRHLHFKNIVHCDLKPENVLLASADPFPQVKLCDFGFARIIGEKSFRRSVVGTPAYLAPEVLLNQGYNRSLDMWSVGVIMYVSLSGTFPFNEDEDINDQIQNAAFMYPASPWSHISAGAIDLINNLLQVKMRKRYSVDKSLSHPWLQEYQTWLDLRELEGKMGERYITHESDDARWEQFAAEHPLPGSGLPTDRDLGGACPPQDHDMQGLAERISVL

The target of assay [3] is T2, Septin-9 (Homo sapiens, UniProt Q9UHD8).
T2 sequence (Q9UHD8 whole entry): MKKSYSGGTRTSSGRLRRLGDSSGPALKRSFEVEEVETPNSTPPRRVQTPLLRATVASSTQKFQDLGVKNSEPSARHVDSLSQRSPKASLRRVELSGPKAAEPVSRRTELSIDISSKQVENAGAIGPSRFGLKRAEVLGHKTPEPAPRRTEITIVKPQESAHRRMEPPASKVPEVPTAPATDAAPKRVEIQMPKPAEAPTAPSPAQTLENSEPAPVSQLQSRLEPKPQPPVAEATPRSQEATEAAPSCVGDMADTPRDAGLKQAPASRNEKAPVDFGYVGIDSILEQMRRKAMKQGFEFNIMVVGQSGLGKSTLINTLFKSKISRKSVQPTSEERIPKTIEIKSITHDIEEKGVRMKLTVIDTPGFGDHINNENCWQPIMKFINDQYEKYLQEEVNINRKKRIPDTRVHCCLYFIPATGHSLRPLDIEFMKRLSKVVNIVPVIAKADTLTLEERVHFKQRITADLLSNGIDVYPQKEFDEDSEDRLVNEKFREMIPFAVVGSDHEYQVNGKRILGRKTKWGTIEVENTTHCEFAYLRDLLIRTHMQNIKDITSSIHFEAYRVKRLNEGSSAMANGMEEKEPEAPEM

The target of assay [4] is T3, Non-receptor tyrosine-protein kinase TNK1 (Homo sapiens, UniProt Q13470).
T3 sequence (Q13470 whole entry): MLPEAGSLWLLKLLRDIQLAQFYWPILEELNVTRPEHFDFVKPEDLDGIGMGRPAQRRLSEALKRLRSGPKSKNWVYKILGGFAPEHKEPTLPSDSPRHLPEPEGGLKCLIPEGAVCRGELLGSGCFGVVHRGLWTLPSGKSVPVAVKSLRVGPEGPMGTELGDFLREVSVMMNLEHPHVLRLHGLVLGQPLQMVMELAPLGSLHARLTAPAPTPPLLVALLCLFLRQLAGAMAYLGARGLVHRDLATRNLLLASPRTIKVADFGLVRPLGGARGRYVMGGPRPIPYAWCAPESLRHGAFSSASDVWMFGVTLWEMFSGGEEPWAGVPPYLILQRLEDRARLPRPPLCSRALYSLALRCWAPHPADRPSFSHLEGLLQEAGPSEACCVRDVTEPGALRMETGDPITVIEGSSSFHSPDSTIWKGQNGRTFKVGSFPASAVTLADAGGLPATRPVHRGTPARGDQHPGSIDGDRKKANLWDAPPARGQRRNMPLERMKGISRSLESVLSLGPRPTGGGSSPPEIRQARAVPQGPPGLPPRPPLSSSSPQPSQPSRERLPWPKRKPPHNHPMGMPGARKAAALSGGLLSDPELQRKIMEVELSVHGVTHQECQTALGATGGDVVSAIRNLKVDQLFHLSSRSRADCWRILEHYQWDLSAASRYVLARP

Assay [5] has as its target Activated CDC42 kinase 1 (Homo sapiens, UniProt Q07912).

These results are taken from ChEMBL document CHEMBL3991601, “The target landscape of clinical kinase drugs” (Science, 2017).

pKd: −log10 of the molar value. Calls of active or inactive are those of the source. Rule as the data show it, for most assays here: actives have a measured Kd and inactives only a lower limit.
Also: in the data inactive means no Kd found up to 30 µM.

Mitogen-activated protein kinase 9, sequence (P45984 whole entry): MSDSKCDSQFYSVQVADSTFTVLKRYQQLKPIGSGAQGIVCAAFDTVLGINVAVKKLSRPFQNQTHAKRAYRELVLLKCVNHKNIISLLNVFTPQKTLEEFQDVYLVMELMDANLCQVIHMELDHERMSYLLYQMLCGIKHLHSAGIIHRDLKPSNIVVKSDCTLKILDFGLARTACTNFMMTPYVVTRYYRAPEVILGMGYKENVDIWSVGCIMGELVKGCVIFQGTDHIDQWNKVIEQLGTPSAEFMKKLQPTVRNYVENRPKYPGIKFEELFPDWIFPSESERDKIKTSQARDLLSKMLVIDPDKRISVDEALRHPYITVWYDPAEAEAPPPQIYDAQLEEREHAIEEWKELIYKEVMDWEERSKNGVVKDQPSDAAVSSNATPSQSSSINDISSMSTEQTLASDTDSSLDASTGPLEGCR
Activated CDC42 kinase 1, sequence (Q07912 whole entry): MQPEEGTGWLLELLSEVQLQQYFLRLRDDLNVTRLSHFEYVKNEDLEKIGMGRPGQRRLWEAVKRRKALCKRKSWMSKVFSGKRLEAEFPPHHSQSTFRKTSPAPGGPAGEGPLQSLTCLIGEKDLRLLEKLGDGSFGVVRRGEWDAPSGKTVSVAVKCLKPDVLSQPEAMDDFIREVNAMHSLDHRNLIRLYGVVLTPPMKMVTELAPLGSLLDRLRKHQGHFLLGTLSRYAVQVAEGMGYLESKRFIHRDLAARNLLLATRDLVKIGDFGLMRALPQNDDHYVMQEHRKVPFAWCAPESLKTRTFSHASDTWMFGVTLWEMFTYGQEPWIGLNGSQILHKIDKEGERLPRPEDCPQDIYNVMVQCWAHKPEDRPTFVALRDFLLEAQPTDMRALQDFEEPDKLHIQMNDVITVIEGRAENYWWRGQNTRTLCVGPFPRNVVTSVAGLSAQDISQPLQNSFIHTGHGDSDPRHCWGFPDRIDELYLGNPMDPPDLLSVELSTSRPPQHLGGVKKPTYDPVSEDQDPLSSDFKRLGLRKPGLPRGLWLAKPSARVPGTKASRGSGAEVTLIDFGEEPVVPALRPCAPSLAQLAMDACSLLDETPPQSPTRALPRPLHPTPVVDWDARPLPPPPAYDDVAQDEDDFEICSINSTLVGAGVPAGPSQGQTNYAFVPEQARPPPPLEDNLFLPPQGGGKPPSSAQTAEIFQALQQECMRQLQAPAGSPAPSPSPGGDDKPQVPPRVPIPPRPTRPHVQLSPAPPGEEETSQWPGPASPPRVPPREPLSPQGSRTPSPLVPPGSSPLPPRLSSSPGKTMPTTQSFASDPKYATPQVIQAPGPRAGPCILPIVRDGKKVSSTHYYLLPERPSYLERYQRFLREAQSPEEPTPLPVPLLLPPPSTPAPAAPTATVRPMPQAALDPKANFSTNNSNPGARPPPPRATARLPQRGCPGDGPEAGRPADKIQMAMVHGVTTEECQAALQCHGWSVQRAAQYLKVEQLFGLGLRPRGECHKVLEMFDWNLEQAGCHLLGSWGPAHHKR

For `COc1cc2nccc(Oc3ccc(NC(=O)NC4CC4)c(Cl)c3)c2cc1C(N)=O` [LENVATINIB], the Kd in assay [1], in assay [2], in assay [3], in assay [4] and in assay [5] was > 30 µM (inactive) in each case.
On to `CO[C@H]1C[C@@H]2CC[C@@H](C)[C@@](O)(O2)C(=O)C(=O)N2CCCC[C@H]2C(=O)O[C@H]([C@H](C)C[C@@H]2CC[C@@H](OCCO)[C@H](OC)C2)CC(=O)[C@H](C)/C=C(\C)[C@@H](O)[C@@H](OC)C(=O)[C@H](C)C[C@H](C)/C=C/C=C/C=C/1C` [EVEROLIMUS], for which the Kd in assay [1], in assay [2], in assay [3], in assay [4] and in assay [5] was > 30 µM (inactive) each time.
Turning to `Cc1ccc(NC(=O)c2ccc(CN3CC[C@H](N(C)C)C3)c(C(F)(F)F)c2)cc1Nc1nccc(-c2cncnc2)n1` [BAFETINIB], the Kd in assay [1], in assay [2], in assay [3], in assay [4] and in assay [5] was > 30 µM (inactive) each time.
For the compound `CC(C)Nc1cc(-c2c[nH]c(C(=O)N[C@H](CO)c3cccc(Cl)c3)c2)c(Cl)cn1` [ULIXERTINIB], the Kd (as a rule, the free concentration of one partner at which half of the binding sites on the other are occupied at equilibrium, for simple one-to-one binding) is > 30 µM (inactive) in assay [1]; 6.34 µM (active) in assay [2]; > 30 µM (inactive) in assay [3]; > 30 µM (inactive) in assay [4]; > 30 µM (inactive) in assay [5].
Consider `O=C(Nc1cccc(Cl)c1)Nc1ncc(CCNc2ncnc3ccsc23)s1` [SNS-314], for which the Kd in assay [3] and in assay [4] was > 30 µM (inactive) each time.
Turning to `O=C1NC(=O)/C(=C/c2ccc3nccc(-c4ccncc4)c3c2)S1` [GSK-1059615], the Kd in assay [1], in assay [2], in assay [3], in assay [4] and in assay [5] was > 30 µM (inactive) each time.
`Cc1cn(-c2cc(NC(=O)c3ccc(C)c(Nc4nccc(-c5cccnc5)n4)c3)cc(C(F)(F)F)c2)cn1` [NILOTINIB]: the Kd in assay [3] was > 30 µM (inactive).
As to `COc1cc(CCc2cc(NC(=O)c3ccc(N4C[C@@H](C)N[C@@H](C)C4)cc3)n[nH]2)cc(OC)c1` [AZD-4547], the Kd in assay [1], in assay [2], in assay [3] and in assay [4] was > 30 µM (inactive) throughout. Further, the pKd (in general, the Kd on a negative log10 scale, so that one unit is a factor of ten) in assay [5] was 6.83.
With `C[C@@H]1CN(Cc2ccc(F)cc2)[C@@H](C)CN1C(=O)c1cc2c(C(=O)C(=O)N(C)C)cn(C)c2cc1Cl` [TALMAPIMOD], the Kd in assay [1], in assay [2], in assay [3], in assay [4] and in assay [5] was > 30 µM (inactive) each time.
For `CCS(=O)(=O)N1CC(CC#N)(n2cc(-c3ncnc4[nH]ccc34)cn2)C1` [BARICITINIB], the Kd in assay [1], in assay [2] and in assay [5] was > 30 µM (inactive) each time. Also, the pKd in assay [3] is 7.08; in assay [4], 6.21.
With `COc1ccc(-c2ccc3c(N4CCOC[C@@H]4C)nc(N4CCOC[C@@H]4C)nc3n2)cc1CO` [AZD-8055], the Kd in assay [1], in assay [2], in assay [3], in assay [4] and in assay [5] was > 30 µM (inactive) each time.
Consider `CN1CC[C@@H](c2c(O)cc(O)c3c(=O)cc(-c4ccccc4Cl)oc23)[C@@H]1CO`, for which the Kd in assay [1], in assay [2], in assay [3], in assay [4] and in assay [5] was > 30 µM (inactive) throughout.
Consider `C=CC(=O)N1CCC(Oc2cc3c(Nc4ccc(Cl)c(Cl)c4F)ncnc3cc2OC)CC1` [POZIOTINIB], for which the Kd is > 30 µM (inactive) in assay [1]; > 30 µM (inactive) in assay [2]; > 30 µM (inactive) in assay [3]; 1.68 µM (active) in assay [4]; > 30 µM (inactive) in assay [5].
With `Cn1cc(-c2ccc3nnc(C(F)(F)c4ccc5ncccc5c4)n3n2)cn1` [JNJ-38877605], the Kd in assay [1], in assay [2], in assay [3], in assay [4] and in assay [5] was > 30 µM (inactive) throughout.
With `Cc1ccc(-n2nc(C(C)(C)C)cc2NC(=O)NCc2cc(F)ccc2Oc2ccc3c(cnn3CCO)c2)cc1` [PEXMETINIB], the Kd in assay [1] is 0.312 µM (active); in assay [2] it was > 30 µM (inactive); in assay [3], > 30 µM (inactive); in assay [4] it was 1.66 µM (active); in assay [5], > 30 µM (inactive).
With `Cc1c(F)cc(C(=O)NC2CC2)cc1-c1ccc(C(=O)NCC(C)(C)C)cn1` [LOSMAPIMOD], the Kd in assay [1], in assay [2], in assay [3], in assay [4] and in assay [5] was > 30 µM (inactive) each time.
Take `Nc1nc(N)c2nc(-c3cccc(O)c3)c(-c3cccc(O)c3)nc2n1` [TG100-115]: in assay [3], the Kd is > 30 µM (inactive).
Take `CN1CCN(c2ccc3nc(-c4c(N)c5c(F)cccc5[nH]c4=O)[nH]c3c2)CC1` [DOVITINIB]: in assay [3], the Kd was > 30 µM (inactive).
Still for that read-out and setting: with `Cc1cc(Nc2cc(N3CCN(C)CC3)nc(/C=C/c3ccccc3)n2)n[nH]1` [ENMD-2076] the figure was > 30 µM (inactive).
`CNC(=O)c1ccc(C)c(-n2c(C)cc(OCc3ccc(F)cc3F)c(Br)c2=O)c1` [PH-797804]: the Kd in assay [2], in assay [3], in assay [4] and in assay [5] was > 30 µM (inactive) throughout.
Regarding `Cc1nc(N)sc1-c1ccnc(Nc2ccc(N3CCOCC3)cc2)n1` [CYC-116], the Kd in assay [3] and in assay [4] was > 30 µM (inactive) throughout.
Regarding `CCn1c(-c2nonc2N)nc2c(C#CC(C)(C)O)ncc(OC[C@H]3CCCNC3)c21` [GSK-690693], the Kd in assay [3] was > 30 µM (inactive).
Turning to `CCc1cnn2c(NCc3ccc[n+]([O-])c3)cc(N3CCCC[C@H]3CCO)nc12` [DINACICLIB], the Kd in assay [2], in assay [3] and in assay [4] was > 30 µM (inactive) throughout.
As for `OCCn1cc(-c2cnc3nnn(Cc4ccc5ncccc5c4)c3n2)cn1` [PF-04217903], the Kd in assay [2], in assay [3] and in assay [4] was > 30 µM (inactive) each time.
Regarding `COC(=O)[C@@]1(O)C[C@H]2O[C@]1(C)n1c3ccccc3c3c4c(c5c6ccccc6n2c5c31)C(=O)NC4` [K-252A], the dissociation constant (Kd) was 0.986 µM (active) in assay [1], 0.03 µM (active) in assay [2], > 30 µM (inactive) in assay [3] and 0.287 µM (active) in assay [4].
